Data on 56 compounds can be found in US20090069301A1, “Acridine and Quinoline Derivatives as Sirtuin Modulators” (Sirtris Pharmaceuticals, Inc., priority 2005, published 2009).

Molecules are shown by their SMILES.

For the first assay, the target named is T1, SIRT1 (Homo sapiens, UniProt Q96EB6).
T1 sequence (Q96EB6 1-747): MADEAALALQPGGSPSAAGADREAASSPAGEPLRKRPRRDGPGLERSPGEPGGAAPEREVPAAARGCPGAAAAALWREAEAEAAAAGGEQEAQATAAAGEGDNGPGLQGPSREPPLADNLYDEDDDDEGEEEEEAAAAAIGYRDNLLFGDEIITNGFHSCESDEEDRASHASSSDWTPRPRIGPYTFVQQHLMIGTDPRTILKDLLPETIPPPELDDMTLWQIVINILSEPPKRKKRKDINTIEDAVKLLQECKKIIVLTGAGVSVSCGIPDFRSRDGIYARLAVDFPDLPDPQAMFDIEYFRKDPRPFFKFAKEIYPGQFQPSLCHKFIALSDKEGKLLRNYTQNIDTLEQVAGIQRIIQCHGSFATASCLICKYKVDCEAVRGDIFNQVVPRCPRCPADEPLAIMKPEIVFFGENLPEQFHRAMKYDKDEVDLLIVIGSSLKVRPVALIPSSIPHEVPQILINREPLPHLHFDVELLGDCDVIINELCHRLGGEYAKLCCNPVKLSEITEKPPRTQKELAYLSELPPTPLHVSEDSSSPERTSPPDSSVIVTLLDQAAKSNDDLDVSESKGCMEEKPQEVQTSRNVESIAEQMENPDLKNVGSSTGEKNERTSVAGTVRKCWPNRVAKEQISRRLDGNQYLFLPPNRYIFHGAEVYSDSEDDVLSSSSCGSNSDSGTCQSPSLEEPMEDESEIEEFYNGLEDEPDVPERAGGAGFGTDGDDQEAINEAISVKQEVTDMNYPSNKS
The experiment in a line: Fluorescence polarization or mass spectrometry based assay to identify modulators of SIRT1 activity (p53-based peptide deacetylation).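 Also: recombinant His-tagged human SIRT1 deacetylating p53-derived acetylated peptide, detected by fluorescence polarization after trypsin cleavage, signal inversely tracking deacetylase activity, compared against activity without test compound.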 It counts as biochemical. The settings on record: activation of SIRT1, Table 4; read-out: ED50 (the source's name). In general terms: In fluorescence polarisation assays a small probe gives low polarisation when free and higher when bound to something large.
Turning to `CC(C)c1cc(NCc2c3ccccc3nc3ccccc23)n(-c2ccccc2)n1` [Compound 125], the EC50 is greater than 150 µM.
Same read-out and setting: the same measure for `Cc1ccc2nc(-c3cccs3)ccc2c1C(=O)NCCCN1CCCCC1` [Compound 21]: greater than 150 µM; for `CN(NC(=O)c1ccncc1)c1c2ccccc2nc2ccccc12` [Compound 155]: less than 50 µM.
`Cc1ccc2nc(-c3cccs3)cc(C(=O)N(C)CCN(C)C)c2c1` [Compound 51]: the EC50 was greater than 150 µM.
The same measure, in the same setting: the same measure for `CC(C)c1cc(Nc2c3ccccc3nc3ccccc23)n(-c2ccccc2)n1` [Compound 131]: greater than 150 µM; for `O=C(NNc1c2ccccc2nc2ccccc12)c1ccncc1` [Compound 10]: less than 50 µM; for `Cc1ccc2nc(-c3ccco3)cc(C(=O)N3CCCCC3)c2c1` [Compound 30]: greater than 150 µM.
Same read-out and setting: the same measure for `Cc1ccc2nc(-c3cccs3)cc(C(=O)NCCN3CCOCC3)c2c1` [Compound 6]: less than 50 µM; for `COc1cc(NCc2c3ccccc3nc3ccccc23)cc(OC)c1OC` [Compound 127]: greater than 150 µM; for `Cc1ccc2nc(-c3ccco3)cc(C(=O)NCCCN3CCN(C)CC3)c2c1` [Compound 47]: greater than 150 µM.
`COc1cc(C(=O)NN(C)c2c3ccccc3nc3ccccc23)cc(OC)c1OC` [Compound 154]: the EC50 is greater than 150 µM.
On the same count and under the same terms, with `COc1ccc(C(=O)NNc2cc(-c3ccccc3)nc3ccccc23)cc1OC` [Compound 26] the figure was less than 50 µM; with `CCCCc1ccc(NC(=O)c2c3c(nc4ccccc24)CCCC3)cc1` [Compound 160], greater than 150 µM; with `CCCOc1cccc(-c2cc(C(=O)NCCN3CCOCC3)c3ccccc3n2)c1` [Compound 4], greater than 150 µM.
In the case of `Cc1ccc2nc(-c3ccccc3)cc(C(=O)NCCCN3CCN(C)CC3)c2c1` [Compound 45], the EC50 is greater than 150 µM.
The same measure, in the same setting: with `Cc1ccc(-c2cccc(NC(=O)c3c4ccccc4nc4ccccc34)c2)cc1C` [Compound 130] the figure was greater than 150 µM.
On to `O=C(Nc1ccc2c(c1)OCO2)Nc1c2ccccc2nc2ccccc12` [Compound 153], for which the EC50 is greater than 150 µM.
On the same count and under the same terms, with `Cc1ccc2nc(-c3cccs3)cc(C(=O)NCCCN3CCN(C)CC3)c2c1` [Compound 18] the figure was greater than 150 µM; with `O=C(NNc1cc(-c2ccccc2)nc2ccccc12)c1ccc(Cl)cc1` [Compound 23], less than 50 µM; with `COc1cc(-c2nnc(-c3c4ccccc4nc4ccccc34)o2)cc(OC)c1OC` [Compound 137], less than 50 µM.
As to `Cc1ccc2nc(-c3ccco3)cc(C(=O)NCCCCN3CCN(C)CC3)c2c1` [Compound 17], the EC50 was greater than 150 µM.
With `Cc1ccc2nc(-c3ccco3)cc(C(=O)N3CCOCC3)c2c1` [Compound 35], the EC50 was greater than 150 µM.
For `O=C(Nc1c2c(nc3ccccc13)CCCC2)c1ccncc1` [Compound 157], the EC50 is greater than 150 µM.
The same measure, in the same setting: with `O=C(Nc1ccccc1-n1cccc1)c1c2ccccc2nc2ccccc12` [Compound 129] the figure was greater than 150 µM; with `Cc1ccc2nc(-c3ccco3)cc(C(=O)NCCCN3CCOCC3)c2c1` [Compound 31], greater than 150 µM; with `COc1cc(C(=O)NNc2c3ccccc3nc3ccccc23)cc(OC)c1OC` [Compound 3], less than 50 µM.
The same measure, in the same setting: the same measure for `CS(=O)(=O)c1ccc(F)c(NC(=O)c2c3ccccc3nc3ccccc23)c1` [Compound 135]: greater than 150 µM; for `Cc1ccc2nc(-c3cccs3)cc(C(=O)N3CCN(C)CC3)c2c1` [Compound 49]: greater than 150 µM; for `Cc1ccc2nc(-c3ccco3)cc(C(=O)NCCN(C)CCN(C)C)c2c1` [Compound 46]: greater than 150 µM.
The same measure, in the same setting: the same measure for `Cc1ccc2nc(-c3ccccc3)cc(C(=O)NCCCN3CCCCC3)c2c1` [Compound 44]: greater than 150 µM; for `CCN(CC)S(=O)(=O)c1ccc(N2CCOCC2)c(NC(=O)c2cc(-c3ccccn3)nc3ccccc23)c1` [Compound 9]: greater than 150 µM.
With `Cc1ccc2nc(-c3cccs3)cc(C(=O)NCCN3CCCCC3)c2c1` [Compound 52], the EC50 is greater than 150 µM.
`O=C(Nc1ccc(N2CCCCC2)cc1)c1c2ccccc2nc2ccccc12` [Compound 128]: the EC50 is greater than 150 µM.
Same read-out and setting: the same measure for `c1ccc(NNc2c3ccccc3nc3ccccc23)nc1` [Compound 121]: less than 50 µM; for `COc1cc(C(=O)NNc2cc(-c3ccccc3)nc3ccccc23)cc(OC)c1OC` [Compound 24]: greater than 150 µM; for `COc1cc(NC(=O)c2cc(-c3ccccc3)nc3ccccc23)cc(OC)c1OC` [Compound 27]: greater than 150 µM.
Same read-out and setting: the same measure for `c1ccc2c(c1)Oc1ccccc1C2n1nnc2ccccc21` [Compound 124]: greater than 150 µM; for `Cc1ccc2nc(-c3cccs3)cc(C(=O)N3CCCN(C)CC3)c2c1` [Compound 50]: greater than 150 µM.
On the same count and under the same terms, with `O=C(NCc1ccncc1)c1cc(-c2ccsc2)nc2ccccc12` [Compound 1] the figure was less than 50 µM; with `COc1cc(C(=O)NNc2c3c(nc4ccccc24)CCCC3)cc(OC)c1OC` [Compound 120], less than 50 µM.
With `Cc1ccc2nc(-c3ccco3)cc(C(=O)N3CCN(C)CC3)c2c1` [Compound 33], the EC50 is greater than 150 µM.
Same read-out and setting: the same measure for `Cc1ccc2nc(-c3cccs3)cc(C(=O)NCCCN3CCOCC3)c2c1` [Compound 53]: greater than 150 µM; for `CC(C)c1cc(NC(=O)c2c3ccccc3nc3ccccc23)n(-c2ccccc2)n1` [Compound 118]: less than 50 µM.
As for `CN(C)c1ccc(C(=O)NNc2cc(-c3ccccc3)nc3ccccc23)cc1` [Compound 25], the EC50 is greater than 150 µM.
Consider `O=C(NNc1c2ccccc2nc2ccccc12)c1cccnc1` [Compound 11], for which the EC50 was less than 50 µM.
On to `COc1ccccc1N1CCN(C(=O)c2c3ccccc3nc3ccccc23)CC1` [Compound 136], for which the EC50 was greater than 150 µM.
With `Cc1ccc2nc(-c3ccco3)ccc2c1C(=O)NCCCN1CCCCC1` [Compound 20], the EC50 is greater than 150 µM.
On the same count and under the same terms, with `O=C(NNc1cc(-c2ccccc2)nc2ccccc12)c1ccccn1` [Compound 22] the figure was less than 50 µM; with `Cc1ccc2nc(-c3ccco3)cc(C(=O)N(C)CCN(C)C)c2c1` [Compound 32], greater than 150 µM.
On to `Cc1ccc2nc(-c3cccs3)cc(C(=O)N3CCCCC3)c2c1` [Compound 48], for which the EC50 is greater than 150 µM.
Consider `Cc1ccc2nc(-c3ccco3)cc(C(=O)NCCN3CCCCC3)c2c1` [Compound 34], for which the EC50 was greater than 150 µM.
As to `O=C(NNC(=O)c1c2ccccc2nc2ccccc12)c1cc(F)cc(F)c1` [Compound 134], the EC50 was greater than 150 µM.

Staying with this assay, now noted: inhibition of SIRT1, Table 5.
For `Cc1ccc2nc(-c3ccccc3)cc(C(=O)NCCCCCN3CCCCC3)c2c1` [Compound 171], the 50% inhibitory concentration (IC50) was greater than 150 µM.
`Cc1ccc2nc(-c3ccccc3)cc(C(=O)NCCCN3CCOCC3)c2c1` [Compound 169] gave a half-maximal inhibitory concentration (IC50) greater than 150 µM.
The compound `Cc1ccc2nc(-c3cccs3)cc(C(=O)N3CCOCC3)c2c1` [Compound 172] gave an IC50 greater than 150 µM.
The same measure, in the same setting: with `Cc1ccc2nc(-c3ccccc3)cc(C(=O)NCCCCCN3CCOCC3)c2c1` [Compound 170] the figure was greater than 150 µM.

For orientation: IC50 means the concentration at which inhibition is half-maximal.
